Measurements published in ChEMBL document CHEMBL4840362, “Diterpenoids from the whole plants of Croton yunnanensis and their bioactivities” (Bioorg Med Chem, 2021).
Activity calls are given as the source filed them. The calls are words filed in the database; no cut-off is given here.

Columns and labels:
Type in all cases: functional, cell-based
SMMC-7721 [1] = assay: Cytotoxicity against human SMMC-7721 cells assessed as inhibition of cell growth at 40 uM measured after 48 hrs by MTS assay
SW480 = assay: Cytotoxicity against human SW480 cells assessed as inhibition of cell growth at 40 uM measured after 48 hrs by MTS assay
MCF7 = assay: Cytotoxicity against human MCF7 cells assessed as inhibition of cell growth at 40 uM measured after 48 hrs by MTS assay
HL-60 [2] = assay: Cytotoxicity against human HL-60 cells assessed as inhibition of cell growth at 40 uM measured after 48 hrs by MTS assay
RAW264.7 = assay: Antiinflammatory activity against mouse RAW264.7 cells assessed as inhibition of LPS induced nitric oxide production at 50 uM followed by LPS stimulation incubated for 18 hrs by Griess reagent based assay
A549 [3] = assay: Cytotoxicity against human A549 cells assessed as inhibition of cell growth at 40 uM measured after 48 hrs by MTS assay
A549 [4] = assay: Cytotoxicity against human A549 cells assessed as inhibition of cell growth measured after 48 hrs by MTS assay; conditions: A549, 48 h
SMMC-7721 [5] = assay: Cytotoxicity against human SMMC-7721 cells assessed as inhibition of cell growth measured after 48 hrs by MTS assay; conditions: SMMC-7721, 48 h
HL-60 [6] = assay: Cytotoxicity against human HL-60 cells assessed as inhibition of cell growth measured after 48 hrs by MTS assay; conditions: HL-60, 48 h

| Structure (SMILES) | Activity (SMMC-7721 [1]) | Activity (SW480) | Activity (MCF7) | Activity (HL-60 [2]) | Activity (RAW264.7) | Activity (A549 [3]) | IC50 (A549 [4]) [µM] | IC50 (SMMC-7721 [5]) [µM] | IC50 (HL-60 [6]) [µM] |
| --- | --- | --- | --- | --- | --- | --- | --- | --- | --- |
| COC(=O)[C@@H]1C=CC[C@@H]2C13CC[C@@H](C)[C@]21C[C@@H](c2ccoc2)O[C@@H]1O3 | inactive | inactive | inactive | inactive | inactive | inactive | – | – | – |
| COC(=O)C12C=CC[C@@H]3[C@@H]1CC[C@H](C)[C@@]31C[C@H](c3ccoc3)O[C@H]1O2 | inactive | inactive | inactive | inactive | inactive | inactive | – | – | – |
| COC(=O)C1=CCC[C@H]2C13CC[C@@H](C)[C@]21C[C@@H](c2ccoc2)O[C@@H]1O3 | inactive | inactive | inactive | inactive | inactive | inactive | – | – | – |
| COc1c(C)cc2c(c1O)[C@]1(C)CCC(=O)C(C)(C)C1=C(O)C2=O | – | – | – | – | inactive | – | 27.4 | 4.47 | 14.4 |
| CCCCCCCCCC(=O)O[C@@H]1[C@@H](C)[C@@]2(O)[C@@H](C=C(CO)C[C@]3(O)C(=O)C(C)=C[C@@H]23)[C@@H]2C(C)(C)[C@]12OC(C)=O | inactive | inactive | inactive | inactive | inactive | inactive | – | – | – |
| COC(=O)c1cccc2c1CC[C@@H](C)[C@]21C[C@@H](c2ccoc2)OC1=O | inactive | inactive | inactive | inactive | inactive | inactive | – | – | – |
| CC(=O)O[C@H]1C(=O)[C@@]2(C)[C@H]([C@H](OC(=O)c3ccccc3)[C@]3(O)C[C@H](OC(=O)[C@H](O)[C@@H](NC(=O)c4ccccc4)c4ccccc4)C(C)=C1C3(C)C)[C@]1(OC(C)=O)CO[C@@H]1C[C@@H]2O [PACLITAXEL] | – | – | – | – | – | – | < 0.008 | 0.143 | < 0.008 |
| COC(=O)C1=CCC[C@@H]2C13CC[C@H](C)[C@@]21C[C@H](c2ccoc2)O[C@H]1O[C@@H]3O | inactive | inactive | inactive | inactive | inactive | inactive | – | – | – |
| COC(=O)C1=CCC[C@H]2C1=CC[C@@H](C)[C@]21C[C@@H](c2ccoc2)OC1=O | inactive | inactive | inactive | inactive | inactive | inactive | – | – | – |
| COC(=O)C1=CCC[C@@H]2[C@]13CC[C@H](C)[C@@]21C[C@H](c2ccoc2)O[C@H]1OC3=O | inactive | inactive | inactive | inactive | inactive | inactive | – | – | – |
